The nature of this data set: In vitro dissolution test in Model Fasted Duodenal (MFD) solution, before storage. Format: physicochemical. The conditions noted are these: before aging; for AUC90 fresh: AUC from 0 to 90 minutes, MFD solution; for MDC fresh: maximum drug concentration, MFD solution pH 6.5, 37° C. The text has this:
The concentration of dissolved drug is typically measured as a function of time by sampling the drug and plotting concentration vs. time so that the MDC can be ascertained. To avoid drug particulates which would give an erroneous determination, the test solution is either filtered or centrifuged. “Dissolved drug” is typically taken as that material that either passes a 0.45 μm syringe filter or, alternatively, the material that remains in the supernatant following centrifugation. Filtration can be conducted using a 13 mm, 0.45 μm polyvinylidine difluoride syringe filter sold by Scientific Resources under the trademark TITAN®. Centrifugation is typically carried out in a polypropylene microcentrifuge tube by centrifuging at 13,000 G for 60 seconds. Other similar filtration or centrifugation methods can be employed and useful results obtained. For example, using other types of microfilters may yield values somewhat higher or lower (±10-40%) than that obtained with the filter specified above but will still allow identification of preferred dispersions. It is recognized that this definition of “dissolved drug” encompasses not only monomeric solvated drug molecules but also a wide range of species such as polymer/drug assemblies that have submicron dimensions such as drug aggregates, aggregates of mixtures of polymer and drug, micelles, polymeric micelles, colloidal particles or nanocrystals, polymer/drug complexes, and other such drug-containing species that are present in the filtrate or supernatant in the specified dissolution test.
Dissolution performance of the material from Example 1, before exposure to increased temperature and humidity, was measured as follows. In a 37° C. controlled temperature box, 3.0 mg of the material of Example 1 was inserted into a polypropylene microcentrifuge tube (Sorenson Bioscience Inc.). The theoretical MDC in solution (i.e., if all drug dissolved) was 490 μg/ml [(3.0 mg×1000 μg/mg)×(0.33 g drug/g dispersion)×0.90 salt factor×0.98 drug assay/1.8 ml=490 μg/ml]. […] The tube was closed and a timer was started. […] Each sample was centrifuged, sampled and resuspended as described, then diluted with 250 μL HPLC grade methanol (Burdick & Jackson) and the concentration of drug was determined by HPLC. Samples were taken after 4, 10, 20, 40, and 90 minutes, analyzed, and drug concentrations for each time point were calculated. […]
In addition, the AUC90 value was calculated for Example 1. […] AUC between two individual time points within the curve was determined as follows. […] AUC90 is determined by calculating the sum of these areas defined by the drug concentrations observed at t1 and t2 equal to: 0 and 4 minutes, 4 and 10 minutes, 10 and 20 minutes, 20 and 40 minutes, and 40 and 90 minutes.

This passage reports AUC90 fresh and MDC fresh results from patent publication US8828442B2, “Pharmaceutical solid dispersions” (Bend Research, Inc., priority 1999, dated 2014).

Molecules are shown by their SMILES.

In turn, `CCC(CC)Nc1cc(C)nc(Oc2c(C)cc(C)cc2C)c1C` [Comparative Example C10, [3,6-Dimethyl-2-(2,4,6-trimethyl-phenoxy)-pyridin-4-yl]-(1-ethyl-propyl)-amine] showed an AUC90 fresh of 23.3 µg·h/mL and an MDC fresh of 22 µg/mL.
Taken in the same sequence, the figures for `CCC(CC)Nc1cc(C)nc(Oc2c(C)cc(C)cc2C)c1C.Cl` [Comparative Example C9, [3,6-Dimethyl-2-(2,4,6-trimethyl-phenoxy)-pyridin-4-yl]-(1-ethyl-propyl)-amine hydrogen chloride] were 165 µg·h/mL and 135 µg/mL.
